Test results published in patent publication US7666845B2, “Compounds having inhibitory activity against sodium-dependent glucose transporter” (Janssen Pharmaceutica N.V., priority 2006, dated 2010).

Target: T1, human SGLT2 (Homo sapiens, UniProt P31639)
T1 construct: expressed in transfected cells; host or cells: CHOK1 (Chinese hamster ovary) cells under Geneticin selection
T1 sequence (P31639 1-672): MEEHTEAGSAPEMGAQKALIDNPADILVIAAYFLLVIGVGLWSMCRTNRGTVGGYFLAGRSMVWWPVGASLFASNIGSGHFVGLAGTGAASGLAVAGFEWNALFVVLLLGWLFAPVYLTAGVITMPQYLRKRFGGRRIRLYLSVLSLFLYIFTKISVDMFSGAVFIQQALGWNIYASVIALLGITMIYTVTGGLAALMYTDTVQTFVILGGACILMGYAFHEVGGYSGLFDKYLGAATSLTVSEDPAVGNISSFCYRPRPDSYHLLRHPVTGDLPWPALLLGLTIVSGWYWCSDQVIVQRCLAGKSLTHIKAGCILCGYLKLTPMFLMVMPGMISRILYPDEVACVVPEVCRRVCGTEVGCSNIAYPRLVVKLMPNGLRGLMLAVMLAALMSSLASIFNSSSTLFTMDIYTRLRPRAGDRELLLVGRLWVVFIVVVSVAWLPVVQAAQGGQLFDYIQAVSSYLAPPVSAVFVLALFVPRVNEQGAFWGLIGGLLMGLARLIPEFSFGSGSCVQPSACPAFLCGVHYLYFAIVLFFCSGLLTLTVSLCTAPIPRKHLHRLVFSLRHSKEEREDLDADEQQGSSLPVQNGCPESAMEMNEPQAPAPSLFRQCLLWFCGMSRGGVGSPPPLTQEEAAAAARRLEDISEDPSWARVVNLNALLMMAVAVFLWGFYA
Experiment: 14C-AMG uptake in CHOK1 cells expressing human SGLT2
Format: cell-based
Conditions: 14C-AMG 0.5 mM, 2 hours at 37° C., read-out: Human SGLT2 inhibition IC50
Protocol: CHOK1 cells expressing human SGLT2 were seeded in 96-well white walled plates at a density of 50,000 cells/well in F-12 nutrient mixture (Ham's F-12) containing 10% fetal bovine serum, 400 μg/ml Geneticin, 50 units/ml sodium penicillin G (Gibco-BRL) and 50 μg/ml streptomycin sulfate. After 2 days of culture at 37° C. in a humidified atmosphere containing 5% CO2, cells were washed once with the assay buffer (137 mM NaCl, 5 mM KCl, 1 mM CaCl2, 1 mM MgCl2, 50 mM Hepes, and 20 mM Tris, pH 7.4) and incubated with 80 μl of the buffer containing test compounds for 10 min at 37° C. Test compounds were dissolved in DMSO. The final concentration of DMSO was 0.5%. The transport reaction was initiated by addition of 20 μl [^14C]-methyl-α-D-glucopyranoside (^14C-AMG, 0.08 uCi per well) solution (final concentration, 0.5 mM). After incubation for 2 hours at 37° C., the uptake was stopped by aspiration of the incubation mixture, the cells were washed three times with ice-cold PBS. Then, cells were solubilized with 0.3 N NaOH and scintalin was added for determination of radioactivity by a liquid scintillation counter. Nonspecific AMG uptake was defined as that which occurred in the presence of 100 μM of phlorizin, a specific inhibitor of sodium-dependent glucose cotransporter. Specific uptake was normalized for the protein concentrations measured by the method of Bradford. […]

- IC50: 1100 nM
SMILES: Cc1ccc(C2OC(C(=O)O)C(O)C(O)C2O)cc1Cc1ccc(-c2ccc(F)cc2)s1 (stereo not shown) [Compound 1, 6-{3-[5-(4-Fluoro-phenyl)-thiophen-2-ylmethyl]-4-methyl-phenyl}-3,4,5-trihydroxy-tetrahydro-pyran-2-carboxylic acid]
